# Where two headings read alike, the source gives them in different places.
# Key:
# MDA-MB [1] = settings: MDA-MB
# MDA-MB [2] = assay: cells; settings: Homo sapiens, read-out: Average cell viability, MDA-MB
# PC3 = assay: CIMA assay, cell viability, PC3; settings: for Fold change in viability AVG: PC3
# [3] = system: U373 (glioblastoma-astrocytoma); assay: CIMA assay, cell viability, U373; settings: for Fold change in viability AVG: U373
# Protocol: Stock solutions of the extracts were prepared in dimethylsulfoxide (DMSO) at 10 mg/mL and stored in 200 μl aliquots at −20° C. until analysis. This preparation ensured that the DMSO delivered to cells in culture never exceeded 1%.
# Prepared extracts were assessed following chronic exposure conditions in which cells were seeded at 2×10^3 cells/well (96 well-plate) and incubated with test compounds for 72 h. Each compound was evaluated over a range of concentrations (0, 10, 25, 50 or 100 μg/ml). Cell proliferation was initially assessed using a standard colorimetric indicator of metabolic activity (CIMA) assay. In this assay, tetrazole reduction was evaluated as a measure of metabolic function that evaluates mitochondrial activity to determine the extent of cell proliferation within a culture. This assay is based on the reduction of yellow tetrazolium salt to purple formazan by mitochondrial reductases enzyme in viable cells, resulting in a color changed that confers a change in absorbance.
# [4] = system: SKOV3 (ovarian adenocarcinoma); assay: CIMA assay, cell viability, SKOV3; settings: for Fold change in viability AVG: SKOV
# [5] = system: THP-1 (acute monocytic leukemia); assay: CIMA assay, cell viability, THP-1; settings: for Fold change in viability AVG: THP-1
# [6] = CIMA assay, cell viability, CCD1079SK; settings: human, Average cell viability, CCD
# [7] = system: CCD1079SK (fibroblast, noncancerous but proliferating); assay: CIMA assay, cell viability, CCD1079SK; settings: CCD
# A549 (lung carcinoma) = assay: CIMA assay (colorimetric indicator of metabolic activity), cell viability, A549; settings: for Fold change in viability AVG: A549
smiles,measurement,setting,value
"CC/C=C\C/C=C\C/C=C\C/C=C\C/C=C\CCCC(=O)OCC(COC1OC(CO)C(O)C(O)C1O)OC(=O)CCC/C=C\C/C=C\C/C=C\C/C=C\C/C=C\CC (stereo not shown) [Compound 7, MGDG C20:5/C20:5]",MDA-MB AVG,MDA-MB [1]; sample at 1 ug/mL,1.16
same,MDA-MB AVG,MDA-MB [1]; sample at 10 ug/mL,1.13
same,MDA-MB AVG,MDA-MB [1]; sample at 50 ug/mL,0.30
same,MDA-MB AVG,MDA-MB [1]; sample at 100 ug/mL,0.27
same,Fold change in viability AVG,MDA-MB [1]; 1 ug/mL,1.16
same,Fold change in viability AVG,MDA-MB [1]; 10 ug/mL,1.13
same,Fold change in viability AVG,MDA-MB [1]; 50 ug/mL,0.30
same,Fold change in viability AVG,MDA-MB [1]; 100 ug/mL,0.27
same,viability at 1 µg/mL,MDA-MB [2]; 1 ug/mL,106%
same,viability at 10 µg/mL,MDA-MB [2]; 10 ug/mL,104%
same,viability at 50 µg/mL,MDA-MB [2]; 50 ug/mL,27%
same,viability at 100 µg/mL,MDA-MB [2]; 100 ug/mL,24%
same,viability at 1 µg/mL,"PC3; Homo sapiens, PC-3, read-out: Average cell viability, PC3, 1 ug/mL",107%
same,viability at 10 µg/mL,"PC3; Homo sapiens, PC-3, read-out: Average cell viability, PC3, 10 ug/mL",103%
same,viability at 50 µg/mL,"PC3; Homo sapiens, PC-3, read-out: Average cell viability, PC3, 50 ug/mL",14%
same,viability at 100 µg/mL,"PC3; Homo sapiens, PC-3, read-out: Average cell viability, PC3, 100 ug/mL",12%
same,PC3 AVG,"PC3; PC3, sample at 1 ug/mL",1.11
same,PC3 AVG,"PC3; PC3, sample at 10 ug/mL",1.07
same,PC3 AVG,"PC3; PC3, sample at 50 ug/mL",0.14
same,PC3 AVG,"PC3; PC3, sample at 100 ug/mL",0.13
same,Fold change in viability AVG,PC3; 1 ug/mL,1.11
same,Fold change in viability AVG,PC3; 10 ug/mL,1.07
same,Fold change in viability AVG,PC3; 50 ug/mL,0.14
same,Fold change in viability AVG,PC3; 100 ug/mL,0.13
same,viability at 1 µg/mL,"[3]; Homo sapiens, U373 MG, read-out: Average cell viability, U373, 1 ug/mL",120%
same,viability at 10 µg/mL,"[3]; Homo sapiens, U373 MG, read-out: Average cell viability, U373, 10 ug/mL",108%
same,viability at 50 µg/mL,"[3]; Homo sapiens, U373 MG, read-out: Average cell viability, U373, 50 ug/mL",6%
same,viability at 100 µg/mL,"[3]; Homo sapiens, U373 MG, read-out: Average cell viability, U373, 100 ug/mL",5%
same,U373 AVG,"[3]; U373, sample at 1 ug/mL",1.22
same,U373 AVG,"[3]; U373, sample at 10 ug/mL",1.10
same,U373 AVG,"[3]; U373, sample at 50 ug/mL",0.06
same,U373 AVG,"[3]; U373, sample at 100 ug/mL",0.05
same,Fold change in viability AVG,[3]; 1 ug/mL,1.22
same,Fold change in viability AVG,[3]; 10 ug/mL,1.10
same,Fold change in viability AVG,[3]; 50 ug/mL,0.06
same,Fold change in viability AVG,[3]; 100 ug/mL,0.05
same,viability at 1 µg/mL,"[4]; Homo sapiens, SK-OV-3, read-out: Average cell viability, SKOV, 1 ug/mL",126%
same,viability at 10 µg/mL,"[4]; Homo sapiens, SK-OV-3, read-out: Average cell viability, SKOV, 10 ug/mL",113%
same,viability at 50 µg/mL,"[4]; Homo sapiens, SK-OV-3, read-out: Average cell viability, SKOV, 50 ug/mL",95%
same,viability at 100 µg/mL,"[4]; Homo sapiens, SK-OV-3, read-out: Average cell viability, SKOV, 100 ug/mL",46%
same,Fold change in viability AVG,[4]; 1 ug/mL,1.36
same,Fold change in viability AVG,[4]; 10 ug/mL,1.21
same,Fold change in viability AVG,[4]; 50 ug/mL,1.02
same,Fold change in viability AVG,[4]; 100 ug/mL,0.49
same,viability at 1 µg/mL,"[5]; Homo sapiens, THP-1, read-out: Average cell viability, THP-1, 1 ug/mL",108%
same,viability at 10 µg/mL,"[5]; Homo sapiens, THP-1, read-out: Average cell viability, THP-1, 10 ug/mL",102%
same,viability at 50 µg/mL,"[5]; Homo sapiens, THP-1, read-out: Average cell viability, THP-1, 50 ug/mL",52%
same,viability at 100 µg/mL,"[5]; Homo sapiens, THP-1, read-out: Average cell viability, THP-1, 100 ug/mL",50%
same,THP-1 AVG,"[5]; THP-1, sample at 1 ug/mL",1.17
same,THP-1 AVG,"[5]; THP-1, sample at 10 ug/mL",1.16
same,THP-1 AVG,"[5]; THP-1, sample at 50 ug/mL",0.59
same,THP-1 AVG,"[5]; THP-1, sample at 100 ug/mL",0.57
same,Fold change in viability AVG,[5]; 1 ug/mL,1.17
same,Fold change in viability AVG,[5]; 10 ug/mL,1.16
same,Fold change in viability AVG,[5]; 50 ug/mL,0.59
same,Fold change in viability AVG,[5]; 100 ug/mL,0.57
same,"viability at 72 h, 1 ug/mL","[6]; CCD1079SK fibroblast cells (noncancerous, proliferating), 1 ug/mL",103%
same,"viability at 72 h, 10 ug/mL","[6]; CCD1079SK fibroblasts (noncancerous, proliferating), 10 ug/mL",97%
same,"viability at 72 h, 50 ug/mL","[6]; CCD1079SK fibroblasts (noncancerous, proliferating), 50 ug/mL",23%
same,"viability at 72 h, 100 ug/mL","[6]; CCD1079SK fibroblasts (noncancerous, proliferating), 100 ug/mL",17%
same,Fold change in viability AVG,[7]; 1 ug/mL,1.13
same,Fold change in viability AVG,[7]; 10 ug/mL,1.06
same,Fold change in viability AVG,[7]; 50 ug/mL,0.25
same,Fold change in viability AVG,[7]; 100 ug/mL,0.19
same,A549 AVG,"A549 (lung carcinoma); A549, sample at 1 ug/mL",0.72
same,A549 AVG,"A549 (lung carcinoma); A549, sample at 10 ug/mL",0.65
same,A549 AVG,"A549 (lung carcinoma); A549, sample at 50 ug/mL",0.64
same,A549 AVG,"A549 (lung carcinoma); A549, sample at 100 ug/mL",0.40
same,Fold change in viability AVG,A549 (lung carcinoma); 1 ug/mL,0.72
same,Fold change in viability AVG,A549 (lung carcinoma); 10 ug/mL,0.65
same,Fold change in viability AVG,A549 (lung carcinoma); 50 ug/mL,0.64
same,Fold change in viability AVG,A549 (lung carcinoma); 100 ug/mL,0.40
same,viability at 1 µg/mL,"A549 (lung carcinoma); Homo sapiens, A549, read-out: Average cell viability, A549, 1 ug/mL",61%
same,viability at 10 µg/mL,"A549 (lung carcinoma); Homo sapiens, A549, read-out: Average cell viability, A549, 10 ug/mL",56%
same,viability at 50 µg/mL,"A549 (lung carcinoma); Homo sapiens, A549, read-out: Average cell viability, A549, 50 ug/mL",55%
same,viability at 100 µg/mL,"A549 (lung carcinoma); Homo sapiens, A549, read-out: Average cell viability, A549, 100 ug/mL",34%

# From US11292807B2 (OCEANS LTD., priority 2015, dated 2022)
